Literature values as cited in US10383918B2, “Compositions in the form of an injectable aqueous solution comprising human glucagon and a statistical co-polyamino acid” (ADOCIA, priority 2016, dated 2019).

Conditions: lyophilizate reconstituted at acidic pH (pH<3)

Substance: H-His-Ser-Gln-Gly-Thr-Phe-Thr-Ser-Asp-Tyr-Ser-Lys-Tyr-Leu-Asp-Ser-Arg-Arg-Ala-Gn-Asp-Phe-Val-Gn-Trp-Leu-Met-Asn-Thr-OH [human glucagon]
- Time to appearance of human glucagon fibrils after the reconstitution: ≤ 24 h
